According to the supplement of paper PMC8671470:

Assays:
Assay in all cases: cell viability (% survival relative to DMSO control, bortezomib = 0%); higher = less cytotoxic
Settings in all cases: 72 h
THP-1 = system: THP-1
In short: (§1)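 After 72 h at 37 °C with 5% CO2, cell viability in 384-well plates was measured by CellTiter-Glo luminescence. The plates held compounds pre-printed at 1, 10, 100, 1000 or 10000 nM in duplicate, and cells from 10 AML and 5 CML lines seeded at densities titrated to linear growth. Percent survival is the duplicate mean, normalised to vehicle as 100% and a 10 µM positive control as 0%.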

MOLM-13 = system: MOLM-13
In short: as §1

NOMO-1 = system: NOMO-1
In short: as §1

ML-2 = system: ML-2
In short: as §1

| SMILES | cell viability (THP-1; 1 nM) | cell viability (THP-1; 10 nM) | cell viability (THP-1; 100 nM) | cell viability (THP-1; 1000 nM) | cell viability (THP-1; 10000 nM) | cell viability (MOLM-13; 1 nM) | cell viability (MOLM-13; 10 nM) | cell viability (MOLM-13; 100 nM) | cell viability (MOLM-13; 1000 nM) | cell viability (MOLM-13; 10000 nM) | cell viability (NOMO-1; 1 nM) | cell viability (NOMO-1; 10 nM) | cell viability (NOMO-1; 100 nM) | cell viability (NOMO-1; 1000 nM) | cell viability (NOMO-1; 10000 nM) | cell viability (ML-2; 1 nM) | cell viability (ML-2; 10 nM) | cell viability (ML-2; 100 nM) | cell viability (ML-2; 1000 nM) | cell viability (ML-2; 10000 nM) |
| --- | --- | --- | --- | --- | --- | --- | --- | --- | --- | --- | --- | --- | --- | --- | --- | --- | --- | --- | --- | --- |
| CC(/C=C1\SC(=S)N(CC(=O)O)C1=O)=C\c1ccccc1 [Epalrestat] | 101% | 95.6% | 115% | 102% | 103% | 120% | 106% | 106% | 99.1% | 110% | 108% | 101% | 93.4% | 102% | 103% | 99.7% | 101% | 99.8% | 104% | 112% |
| CCOC(=O)[C@@]1(CCCCCCOc2ccc(Cl)cc2)CO1 [Etomoxir] | 98.3% | 105% | 97.3% | 96.4% | 102% | 134% | 99.7% | 93.1% | 92% | 93% | 99.5% | 101% | 104% | 92.1% | 102% | 109% | 109% | 114% | 87.6% | 99.9% |
| Cc1c(-c2ccccc2)oc2c(C(=O)OCCN3CCCCC3)cccc2c1=O.Cl [Flavoxate] | 93.5% | 97.7% | 93.5% | 96.6% | 109% | 92.9% | 107% | 95.4% | 92.6% | 81.6% | 93.8% | 105% | 99.3% | 97.1% | 99.6% | 99.1% | 99.5% | 105% | 101% | 103% |
| O=C(O)CCc1ccc(NCc2cccc(Oc3ccccc3)c2)cc1 [GW9508] | 95.1% | 101% | 104% | 111% | 111% | 98.9% | 91.7% | 92.1% | 89.6% | 104% | 92.8% | 96.6% | 108% | 108% | 104% | 84.3% | 103% | 95.8% | 112% | 103% |
| c1ccc2c(c1)OCC(=C1NCCN1)O2 [Idazoxan] | 104% | 107% | 83.3% | 91.4% | 103% | 97.2% | 109% | 95.1% | 89.5% | 102% | 98.9% | 104% | 94.4% | 92.2% | 89.3% | 97.4% | 97.9% | 86.9% | 94.2% | 93.7% |
| C[C@]12O[C@H](C[C@]1(O)CO)n1c3ccccc3c3c4c(c5c6ccccc6n2c5c31)CNC4=O [Lestaurtinib] | 94.4% | 105% | 87.2% | 46% | 0.505% | 78.5% | 14.4% | -0.694% | 1.23% | -0.369% | 100% | 92.3% | 68.1% | 9.73% | 0.0124% | 107% | 84.4% | 61.4% | 9.84% | 0.0251% |
| O=C(O)c1nn(Cc2ccc(Cl)cc2Cl)c2ccccc12 [Lonidamine] | 107% | 97% | 102% | 99.3% | 101% | 102% | 113% | 116% | 91.3% | 98.4% | 96.7% | 99.9% | 107% | 106% | 105% | 102% | 106% | 101% | 93.7% | 95.1% |
| C1CCc2nnc(C34CC5CC(CC(C5)C3)C4)n2CC1 [MERCK-544] | 102% | 107% | 93.7% | 102% | 91.1% | 97.3% | 126% | 115% | 80.7% | 118% | 102% | 95.8% | 89.3% | 97.4% | 109% | 101% | 97.5% | 93.5% | 87.7% | 96.6% |
| CC(Cc1ccc(O)c(O)c1)C(C)Cc1ccc(O)c(O)c1 (stereo not given) [Masoprocol] | 95.4% | 98.4% | 96.2% | 93.4% | 85.9% | 98.4% | 106% | 110% | 91.2% | 65.8% | 97% | 104% | 101% | 111% | 56.2% | 99.2% | 103% | 96.1% | 101% | 3.98% |
| CC(C(=O)O)C(=O)O [Methylmalonate] | 98.5% | 94.5% | 101% | 103% | 87.6% | 107% | 86.8% | 124% | 78.3% | 89.2% | 95.4% | 94.6% | 97.2% | 94% | 96.1% | 87.4% | 96.5% | 96.6% | 92.2% | 87.9% |
| COc1c(C)c2c(c(O)c1C/C=C(\C)CCC(=O)O)C(=O)OC2 [Mycophenolic acid] | 112% | 95.7% | 103% | 97.5% | 59.2% | 109% | 109% | 70.9% | 13% | 2.42% | 103% | 96.6% | 106% | 89.2% | 24.7% | 116% | 105% | 86.5% | 22.7% | 8.02% |
| C1CCC(C(CC2CCCCN2)C2CCCCC2)CC1.O=C(O)/C=C\C(=O)O (stereo not given) [Perhexiline] | 101% | 93.8% | 100% | 89% | -0.129% | 83.3% | 99.8% | 112% | 88.2% | 3.56% | 91.6% | 82.6% | 88.7% | 94.9% | 25.9% | 76.3% | 87.2% | 89.7% | 92.8% | 0.081% |
| OCCN1CCN(CCCN2c3ccccc3Sc3ccc(Cl)cc32)CC1 [Perphenazine] | 95.7% | 99.2% | 103% | 99.1% | 50.2% | 114% | 68.9% | 84% | 140% | 18.5% | 112% | 93.1% | 106% | 108% | 56.9% | 99.6% | 95.4% | 96.6% | 101% | 34.4% |
| C=CCc1ccc2c(c1O)C(=O)c1ccccc1C2=O [R162] | 101% | 99.1% | 102% | 109% | 109% | 94% | 107% | 106% | 136% | 99.2% | 99% | 92.1% | 96.2% | 105% | 100% | 99.4% | 99.2% | 97.8% | 101% | 90.8% |
| O=C(c1ccc(OCCN2CCCCC2)cc1)c1c(-c2ccc(O)cc2)sc2cc(O)ccc12 [Raloxifene] | 94.5% | 97% | 96.5% | 105% | 93.5% | 79.1% | 82.2% | 106% | 83.2% | 77% | 100% | 95.8% | 99.3% | 100% | 86.5% | 101% | 91.2% | 101% | 96.9% | 82.9% |
| NC(=O)c1ncn([C@@H]2O[C@H](CO)[C@@H](O)[C@H]2O)n1 [Ribavirin] | 96.5% | 103% | 107% | 107% | 112% | 87.6% | 88% | 84.1% | 129% | 62.9% | 99% | 102% | 103% | 106% | 103% | 95.4% | 103% | 97.7% | 94.3% | 111% |
| Nc1ncnc2c1ncn2[C@@H]1O[C@H](CSCC[C@H](N)C(=O)O)[C@@H](O)[C@H]1O [S-Adenosyl Homocysteine] | 103% | 90.8% | 100% | 98.9% | 111% | 100% | 130% | 114% | 115% | 125% | 101% | 104% | 103% | 98.1% | 104% | 102% | 102% | 101% | 107% | 103% |
| CCCc1nn(C)c2c(O)nc(-c3cc(S(=O)(=O)N4CCN(C)CC4)ccc3OCC)nc12 [Sildenafil] | 90.3% | 99.4% | 97.1% | 99.8% | 101% | 101% | 112% | 96.3% | 125% | 106% | 86.9% | 104% | 93.2% | 96.8% | 94.9% | 92.3% | 103% | 93.1% | 109% | 107% |
| Cc1coc2c1C(=O)C(=O)c1c-2ccc2c(C)cccc12 [Tanshinone I] | 109% | 102% | 98.9% | 103% | 90.1% | 89.8% | 103% | 127% | 94.3% | 101% | 111% | 103% | 97.3% | 98.6% | 91.5% | 113% | 114% | 97.8% | 103% | 71.1% |
| CN(C/C=C/C#CC(C)(C)C)Cc1cccc2ccccc12 [Terbinafine] | 102% | 94.6% | 92% | 100% | 94.4% | 105% | 98.5% | 133% | 90.2% | 113% | 99.3% | 101% | 96.7% | 103% | 96.9% | 102% | 101% | 92.2% | 108% | 90.3% |
| CCOC(=O)N1c2ccc(C(F)(F)F)cc2[C@@H](N(Cc2cc(C(F)(F)F)cc(C(F)(F)F)c2)C(=O)OC)C[C@H]1CC [Torcetrapib] | 103% | 97.6% | 99.4% | 101% | 92.2% | 95.9% | 112% | 141% | 98.3% | 63.7% | 103% | 99.4% | 102% | 99.1% | 99% | 89.8% | 97% | 118% | 80.9% | 57.8% |
| Oc1cc(Cl)ccc1Oc1ccc(Cl)cc1Cl [Triclosan] | 92.7% | 98.5% | 103% | 108% | 92% | 102% | 90.9% | 103% | 86.7% | 109% | 102% | 89% | 99.3% | 104% | 105% | 101% | 104% | 102% | 114% | 93.5% |
| COc1cc2c(NC3CCN(C)CC3)nc(N3CCCN(C)CC3)nc2cc1OCCCN(C)C [UNC0224] | 103% | 102% | 93.8% | 93% | 79.7% | 104% | 111% | 92.7% | 104% | 71.1% | 103% | 111% | 98.4% | 95.2% | 90.4% | 94% | 111% | 95% | 99.6% | 97.2% |
| CC(C)C[C@H](NC(=O)[C@@H](O)[C@H](N)Cc1ccccc1)C(=O)O [Ubenimex] | 89.2% | 97.9% | 93.1% | 84.8% | 94.8% | 110% | 100% | 114% | 94.8% | 94.3% | 105% | 105% | 94.8% | 95.5% | 100% | 108% | 109% | 101% | 87.3% | 99.8% |
| O=P(O)(O)C(O)(Cn1ccnc1)P(=O)(O)O [Zoledronic acid] | 104% | 105% | 91.5% | 89.1% | 99.5% | 99.2% | 117% | 103% | 84.5% | 99.8% | 98.8% | 101% | 95.6% | 103% | 94.6% | 80.5% | 94.9% | 92.6% | 105% | 102% |
